The source of these data is patent US10323041B2, “Bicyclic derivatives, a process for their preparation and pharmaceutical compositions containing them” (LES LABORATOIRES SERVIER, priority 2015, dated 2019).

The term IC50 denotes the concentration needed to halve the response being measured.

Mcl-1 protein, sequence (Q07820 whole entry): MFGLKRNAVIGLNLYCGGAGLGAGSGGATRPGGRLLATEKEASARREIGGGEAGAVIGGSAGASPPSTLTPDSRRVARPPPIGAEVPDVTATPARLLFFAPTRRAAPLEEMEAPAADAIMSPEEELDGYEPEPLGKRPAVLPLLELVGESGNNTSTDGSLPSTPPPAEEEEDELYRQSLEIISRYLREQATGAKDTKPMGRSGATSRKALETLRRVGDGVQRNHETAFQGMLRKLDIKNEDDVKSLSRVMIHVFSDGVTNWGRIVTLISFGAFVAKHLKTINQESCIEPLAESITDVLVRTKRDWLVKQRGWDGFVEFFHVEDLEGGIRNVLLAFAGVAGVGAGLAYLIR

This test concerns the target Mcl-1 protein (Homo sapiens, UniProt Q07820). The experiment in a line: Inhibition of Mcl-1 by the fluorescence polarisation technique. The class given is binding. Particulars: Method 1 (not underlined) or Method 2 (underlined); underlining not visible; first value where cell prints two; read-out: IC50 (M) Mcl-1 FP. The method, then:
The relative binding potency of each compound was determined via fluorescence Polarisation (FP). The method utilised a Fluorescein labelled ligand Fluorescein-βAla-Ahx-[A-REIGAQLRRMADDLNAQY (SEQ ID NO: 1)]-OH; mw 2,765) which binds to the Mcl-1 protein (such that corresponds to the UniProtKB® primary accession number: Q07820) leading to an increased anisotropy measured in milli-polarisation (mP) units using a reader. The addition of a compound which binds competitively to the same site as the ligand will result in a greater proportion of unbound ligand in the system indicated by a decrease in mP units.
Method 1: An 11 point serial dilution of each compound was prepared in DMSO and 2 μl transferred into flat bottomed, low binding, 384-well plate (final DMSO concentration 5%). 38 μl of buffer (10 mM 4-(2-hydroxyethyl)-1-piperazineethanesulfonic acid [HEPES], 150 mM NaCl, 0.05% Tween 20, pH 7.4), containing the Fluorescein labelled ligand (final concentration 1 nM) and Mcl-1 protein (final concentration 5 nM) was then added.
(§1) Assay plates were incubated ˜2 hours at room temperature before FP was measured on a […] Synergy2 reader (Ex. 528 nm, Em. 640 nm, Cut off 510 nm) and mP units calculated. The binding of increasing doses of test compound was expressed as a percentage reduction in mP compared to a window established between ‘5% DMSO only’ and ‘100% inhibition’ controls. 11-point dose response curves were plotted with XL-Fit software using a 4-Parameter Logistic Model (Sigmoidal Dose-Response Model) and the inhibitory concentrations that gave a 50% reduction in mP (IC50) were determined. Results obtained using Method 1 are presented in Table 1 below; IC50 of Mcl-1 inhibition obtained using Method 1 are not underlined.
Method 2: An 11 point serial dilution of each compound was prepared in DMSO and 2 μl transferred into flat bottomed, low binding, 384-well plate (final DMSO concentration 5%). 38 μl of buffer (20 mM Na2HPO4, 1 mM EDTA, 50 mM NaCl, pH 7.4), containing the Fluorescein labelled ligand (final concentration 10 nM) and Mcl-1 protein (final concentration 10 nM) was then added.
as §1, with “inhibition’ controls (50 μM unlabelled ligand).” for “inhibition’ controls.”, “Method 2” for “Method 1”, “are” for “are not”
Background: Fluorescence polarisation rises when a labelled molecule tumbles more slowly, as on binding a larger partner.
Regarding `CCc1c(-c2cccc3ccccc23)c2c(N[C@H](Cc3ccccc3)C(=O)O)ncnc2n1Cc1ccccc1` (single isomer, unassigned) [Example 12, N-[7-benzyl-6-ethyl-5-(naphthalen-1-yl)-7H-pyrrolo[2,3-d]pyrimidin-4-yl]-D-phenylalanine], the IC50 was 5.6e-07 M.
With `CCc1c(-c2cccc3ccccc23)c2c(N[C@H](Cc3ccccc3)C(=O)O)ncnc2n1Cc1ccccc1` (single isomer, unassigned) [Example 13, N-[7-benzyl-6-ethyl-5-(naphthalen-1-yl)-7H-pyrrolo[2,3-d]pyrimidin-4-yl]-D-phenylalanine] the figure was 6.6e-07 M; with `CCc1c(-c2cccc3ccccc23)c2c(N[C@H](Cc3ccccc3)C(=O)O)ncnc2n1CCOc1cccc2ccccc12` (single isomer, unassigned) [Example 14, N-{6-ethyl-5-(naphthalen-1-yl)-7-[2-(naphthalen-1-yloxy)ethyl]-7H-pyrrolo[2,3-d]pyrimidin-4-yl}-D-phenylalanine], 1.2e-05 M; with `CCc1c(-c2cccc3ccccc23)c2c(N[C@H](Cc3ccccc3)C(=O)O)ncnc2n1CCOc1cccc2ccccc12` (single isomer, unassigned) [Example 15, N-{6-ethyl-5-(naphthalen-1-yl)-7-[2-(naphthalen-1-yloxy)ethyl]-7H-pyrrolo[2,3-d]pyrimidin-4-yl}-D-phenylalanine], 7.3e-06 M.
With `CCc1c(-c2cccc3ccccc23)c2c(N[C@H](Cc3ccccc3)C(=O)O)ncnc2n1CCc1ccccc1` (single isomer, unassigned) [Example 16, N-[6-ethyl-5-(naphthalen-1-yl)-7-(2-phenylethyl)-7H-pyrrolo[2,3-d]pyrimidin-4-yl]-D-phenylalanine] the figure was 1.8e-06 M; with `CCc1c(-c2cccc3ccccc23)c2c(N[C@H](Cc3ccccc3)C(=O)O)ncnc2n1CCc1ccccc1` (single isomer, unassigned) [Example 17, N-[6-ethyl-5-(naphthalen-1-yl)-7-(2-phenylethyl)-7H-pyrrolo[2,3-d]pyrimidin-4-yl]-D-phenylalanine], 3.8e-06 M.
With `CCc1c(-c2cccc3ccccc23)c2c(N[C@H](Cc3ccccc3)C(=O)O)ncnc2n1CCCc1ccccc1` (single isomer, unassigned) [Example 18, N-[6-ethyl-5-(naphthalen-1-yl)-7-(3-phenylpropyl)-7H-pyrrolo[2,3-d]pyrimidin-4-yl]-D-phenylalanine] the figure was 3.1e-06 M; with `CCc1c(-c2cccc3ccccc23)c2c(N[C@H](Cc3ccccc3)C(=O)O)ncnc2n1CCCc1ccccc1` (single isomer, unassigned) [Example 19, N-[6-ethyl-5-(naphthalen-1-yl)-7-(3-phenylpropyl)-7H-pyrrolo[2,3-d]pyrimidin-4-yl]-D-phenylalanine], 3.3e-06 M; with `C=CCn1c(CC)c(-c2cccc(Cl)c2C)c2c(NC(Cc3ccccc3)C(=O)O)ncnc21` (single isomer, unassigned) [Example 24, N-[(5Ra)-5-(3-chloro-2-methylphenyl)-6-ethyl-7-(prop-2-en-1-yl)-7H-pyrrolo[2,3-d]pyrimidin-4-yl]-D-phenylalanine], 1.8e-05 M.
Take `C=CCn1c(CC)c(-c2cccc(Cl)c2C)c2c(NC(Cc3ccccc3)C(=O)O)ncnc21` (single isomer, unassigned) [Example 25, N-[(5Sa)-5-(3-chloro-2-methylphenyl)-6-ethyl-7-(prop-2-en-1-yl)-7H-pyrrolo[2,3-d]pyrimidin-4-yl]-D-phenylalanine]: the IC50 amounted to 9.1e-06 M.
For `CC#CCn1c(CC)c(-c2cccc(Cl)c2C)c2c(NC(Cc3ccccc3)C(=O)O)ncnc21` (single isomer, unassigned) [Example 26, N-[7-(but-2-yn-1-yl)-(5Ra)-5-(3-chloro-2-methylphenyl)-6-ethyl-7H-pyrrolo[2,3-d]pyrimidin-4-yl]-D-phenylalanine] the value was 5.9e-06 M.
With `CC#CCn1c(CC)c(-c2cccc(Cl)c2C)c2c(NC(Cc3ccccc3)C(=O)O)ncnc21` (single isomer, unassigned) [Example 27, N-[7-(but-2-yn-1-yl)-(5Sa)-5-(3-chloro-2-methylphenyl)-6-ethyl-7H-pyrrolo[2,3-d]pyrimidin-4-yl]-D-phenylalanine] the figure was 3.3e-07 M; with `CCc1c(-c2cccc(Cl)c2C)c2c(NC(Cc3ccccc3)C(=O)O)ncnc2n1CCC1CCCC1` (single isomer, unassigned) [Example 30, N-[(5Ra)-5-(3-chloro-2-methylphenyl)-7-(2-cyclopentylethyl)-6-ethyl-7H-pyrrolo[2,3-d]pyrimidin-4-yl]-D-phenylalanine], 6.4e-06 M; with `CCc1c(-c2cccc(Cl)c2C)c2c(NC(Cc3ccccc3)C(=O)O)ncnc2n1CCC1CCCC1` (single isomer, unassigned) [Example 31, N-[(5Sa)-5-(3-chloro-2-methylphenyl)-7-(2-cyclopentylethyl)-6-ethyl-7H-pyrrolo[2,3-d]pyrimidin-4-yl]-D-phenylalanine], 7.9e-07 M.
With `CCc1c(-c2cccc(Cl)c2C)c2c(NC(Cc3ccccc3)C(=O)O)ncnc2n1Cc1cccc2ccccc12` (single isomer, unassigned) [Example 32, N-[(5Ra)-5-(3-chloro-2-methylphenyl)-6-ethyl-7-(naphthalen-1-ylmethyl)-7H-pyrrolo[2,3-d]pyrimidin-4-yl]-D-phenylalanine] the figure was 3.5e-06 M.
With `CCc1c(-c2cccc(Cl)c2C)c2c(NC(Cc3ccccc3)C(=O)O)ncnc2n1Cc1cccc2ccccc12` (single isomer, unassigned) [Example 33, N-[(5Sa)-5-(3-chloro-2-methylphenyl)-6-ethyl-7-(naphthalen-1-ylmethyl)-7H-pyrrolo[2,3-d]pyrimidin-4-yl]-D-phenylalanine], the IC50 turned out to be 2.6e-07 M.
With `CCc1c(-c2cccc(Cl)c2C)c2c(NC(Cc3ccccc3)C(=O)O)ncnc2n1Cc1ccc(OC)cc1` (single isomer, unassigned) [Example 34, N-[(5Ra)-5-(3-chloro-2-methylphenyl)-6-ethyl-7-(4-methoxybenzyl)-7H-pyrrolo[2,3-d]pyrimidin-4-yl]-D-phenylalanine] the figure was 6.4e-06 M.
With `CCc1c(-c2cccc(Cl)c2C)c2c(NC(Cc3ccccc3)C(=O)O)ncnc2n1Cc1ccc(OC)cc1` (single isomer, unassigned) [Example 35, N-[(5Sa)-5-(3-chloro-2-methylphenyl)-6-ethyl-7-(4-methoxybenzyl)-7H-pyrrolo[2,3-d]pyrimidin-4-yl]-D-phenylalanine] the figure was 2.9e-07 M.
In the case of `CCc1c(-c2cccc(Cl)c2C)c2c(NC(Cc3ccccc3)C(=O)O)ncnc2n1Cc1ccccc1` (single isomer, unassigned) [Example 36, N-[7-benzyl-(5Ra)-5-(3-chloro-2-methylphenyl)-6-ethyl-7H-pyrrolo[2,3-d]pyrimidin-4-yl]-D-phenylalanine], the IC50 came to 6.5e-06 M.
With `CCc1c(-c2cccc(Cl)c2C)c2c(NC(Cc3ccccc3)C(=O)O)ncnc2n1Cc1ccccc1` (single isomer, unassigned) [Example 37, N-[7-benzyl-(5Sa)-5-(3-chloro-2-methylphenyl)-6-ethyl-7H-pyrrolo[2,3-d]pyrimidin-4-yl]-D-phenylalanine], the IC50 worked out at 5.3e-07 M.
With `C=CCCn1c(Br)c(-c2cccc(Cl)c2C)c2c(NC(Cc3ccccc3)C(=O)O)ncnc21` (single isomer, unassigned) [Example 41, N-[6-bromo-7-(but-3-en-1-yl)-(5Ra)-5-(3-chloro-2-methylphenyl)-7H-pyrrolo[2,3-d]pyrimidin-4-yl]-D-phenylalanine] the figure was 1.3e-05 M.
For `C=CCCn1c(Br)c(-c2cccc(Cl)c2C)c2c(NC(Cc3ccccc3)C(=O)O)ncnc21` (single isomer, unassigned) [Example 42, N-[6-bromo-7-(but-3-en-1-yl)-(5Sa)-5-(3-chloro-2-methylphenyl)-7H-pyrrolo[2,3-d]pyrimidin-4-yl]-D-phenylalanine] the value was 4.5e-07 M.
Regarding `Cc1c(Cl)cccc1-c1c2n(c3ncnc(NC(Cc4ccccc4)C(=O)O)c13)CCCC2` (single isomer, unassigned) [Example 47, N-[(5Ra)-5-(3-chloro-2-methylphenyl)-6,7,8,9-tetrahydropyrimido[5,4-b]indolizin-4-yl]-D-phenylalanine], the IC50 stood at 1.1e-05 M.
